Assay results: patent publication US10258694B2, “Skin external preparation and skin irritation-reducing method” (priority 2014, dated 2019)

System: three-dimensional skin model (EPI-212SIT)
Assay: Irritation test using three-dimensional skin model, MTT relative viability (Test Example 1-5)
Format: cell-based
Settings: 60 min exposure, 42 h post-incubation, 0.5 and 1.0 mass % pitavastatin calcium, powder
Method: The following <5-A> to <5-G> were used as test materials to perform exposure of the epidermis to the test materials and irritation evaluation in the following manner in accordance with OECD TG439 (In Vitro skin irritation test) using a kit for skin irritation test approved by OECD (EPI-212SIT manufactured by KURABO).
The epidermis in the kit was pre-incubated overnight, and then 30 μL of the test material was added to the stratum corneum side of the epidermis, and a nylon mesh was placed with tweezers to expose the stratum corneum to the test material. When the test material was solid (<5-E> described below), 25 μL of DPBS was added to the stratum corneum, and immediately after that, 25 mg of the solid material was added to the stratum corneum to expose the stratum corneum to the test material. After 60 minutes, the test material was completely removed by washing. Then, post-incubation was performed for 42 hours. In the process of the post-incubation, a culture medium was replaced once after a lapse of 24 hours. After the post-incubation, a reaction with an MTT solution was performed for 3 hours using an MTT assay kit (MTT-100-JP manufactured by KURABO), and a formazan dye produced by mitochondrial metabolism was extracted to measure the OD value. Based on the measurement result, relative viability was calculated by comparison with a negative control (<5-G> described below).

O=C([O-])C[C@H](O)C[C@H](O)/C=C/c1c(C2CC2)nc2ccccc2c1-c1ccc(F)cc1.O=C([O-])C[C@H](O)C[C@H](O)/C=C/c1c(C2CC2)nc2ccccc2c1-c1ccc(F)cc1.[Ca+2] [pitavastatin calcium]
relative viability (vs negative control DPBS): reduced in a manner dependent on the concentration
